The record followed here is PMC4188576 (PLoS ONE, 2014).

For assay [1], the target named is T1, Pdr5p (Saccharomyces cerevisiae, UniProt P33302).
T1 construct: gene PDR5; plasma membranes containing the overexpressed Pdr5p (strain AD124567)
Put plainly: ATPase (Pi release) assay on Pdr5p-overexpressing plasma membranes, oligomycin-sensitive activity. The format is biochemical.

Assay [2] addresses T2, Na,K-ATPase α1 isoform (Mus musculus, UniProt Q8VDN2).
T2 construct: gene Atp1a1; native mouse kidney membrane preparation, primarily α1 isoform
Description: Na,K-ATPase activity of mouse kidney membranes, dose-response. It is filed as biochemical.

Assay [3] has as its target T3, Na,K-ATPase α1 isoform (Homo sapiens, UniProt P05023).
T3 construct: gene ATP1A1; endogenous enzyme on HeLa cell monolayers
Description: competition of 3H-ouabain radioligand binding on HeLa cells.

T1 sequence (P33302 whole entry): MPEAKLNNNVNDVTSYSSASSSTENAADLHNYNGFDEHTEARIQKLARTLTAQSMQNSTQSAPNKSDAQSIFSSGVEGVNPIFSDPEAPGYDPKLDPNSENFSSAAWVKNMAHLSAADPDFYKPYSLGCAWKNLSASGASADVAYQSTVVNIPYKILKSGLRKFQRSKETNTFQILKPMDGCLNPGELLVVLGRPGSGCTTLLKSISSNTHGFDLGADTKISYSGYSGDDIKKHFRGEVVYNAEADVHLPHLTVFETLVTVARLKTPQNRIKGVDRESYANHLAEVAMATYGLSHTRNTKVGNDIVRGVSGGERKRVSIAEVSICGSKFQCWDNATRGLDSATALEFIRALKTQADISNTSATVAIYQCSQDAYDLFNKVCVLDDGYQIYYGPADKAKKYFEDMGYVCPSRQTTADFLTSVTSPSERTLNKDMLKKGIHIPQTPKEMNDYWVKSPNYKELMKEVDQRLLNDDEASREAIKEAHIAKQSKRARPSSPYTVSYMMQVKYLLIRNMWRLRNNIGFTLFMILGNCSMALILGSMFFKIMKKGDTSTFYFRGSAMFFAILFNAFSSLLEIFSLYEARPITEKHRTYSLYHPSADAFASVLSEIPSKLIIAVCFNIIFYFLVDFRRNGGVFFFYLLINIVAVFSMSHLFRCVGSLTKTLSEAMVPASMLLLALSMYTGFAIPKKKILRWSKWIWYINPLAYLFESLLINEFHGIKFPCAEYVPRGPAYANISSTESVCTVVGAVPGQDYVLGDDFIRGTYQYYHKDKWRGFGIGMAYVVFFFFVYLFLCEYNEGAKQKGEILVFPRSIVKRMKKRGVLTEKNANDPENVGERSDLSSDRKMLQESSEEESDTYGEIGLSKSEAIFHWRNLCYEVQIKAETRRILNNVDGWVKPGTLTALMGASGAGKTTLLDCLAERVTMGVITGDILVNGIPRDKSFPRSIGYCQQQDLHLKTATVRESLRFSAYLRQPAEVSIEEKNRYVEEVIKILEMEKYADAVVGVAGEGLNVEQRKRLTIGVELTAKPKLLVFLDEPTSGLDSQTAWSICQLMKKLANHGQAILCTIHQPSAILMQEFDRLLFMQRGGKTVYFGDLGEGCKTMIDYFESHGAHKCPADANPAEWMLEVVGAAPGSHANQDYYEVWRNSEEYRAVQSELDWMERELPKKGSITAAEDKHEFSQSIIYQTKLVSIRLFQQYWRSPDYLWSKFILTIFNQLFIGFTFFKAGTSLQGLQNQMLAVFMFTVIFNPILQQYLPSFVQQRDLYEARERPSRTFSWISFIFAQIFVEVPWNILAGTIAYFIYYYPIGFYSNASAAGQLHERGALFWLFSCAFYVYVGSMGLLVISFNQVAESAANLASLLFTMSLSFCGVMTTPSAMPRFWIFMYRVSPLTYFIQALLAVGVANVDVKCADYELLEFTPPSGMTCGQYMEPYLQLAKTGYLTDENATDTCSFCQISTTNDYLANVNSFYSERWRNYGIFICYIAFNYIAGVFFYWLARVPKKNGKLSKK

As to `C[C@H]1O[C@@H](O[C@H]2[C@@H](O)C[C@H](O[C@H]3[C@@H](O)C[C@H](O[C@H]4CC[C@@]5(C)[C@H](CC[C@@H]6[C@@H]5C[C@@H](O)[C@]5(C)[C@@H](C7=CC(=O)O/C7=C\c7ccccc7)CC[C@]65O)C4)O[C@@H]3C)O[C@@H]2C)C[C@H](O)[C@@H]1O` [21-BD, 21-benzylidene digoxin], the IC50 in assay [1] came out at 1250 ± 360 nM. In assay [2], the “Na,K-ATPase activity of mouse kidney membranes, dose-response” value was “Similarly, 21-BD inhibited the mouse kidney Na,K-ATPase with similar kinetics”. In assay [3], the “competition of 3H-ouabain radioligand binding on HeLa cells” value is on record as 21-BD significantly competed with ouabain binding at concentrations in the µM range.
